Results from patent US20240150366A1, “4-AMINOQUINAZOLINE COMPOUND” (Astellas Pharma Inc., priority 2021, published 2024).
pIC50: −log10 of the molar value.

What was measured:
[1] = target: KRAS G12D/SOS/c-Raf complex (Homo sapiens (Human), UniProt P01116, G12D); test: KRAS G12D/SOS/c-Raf complex formation inhibitory activity (TR-FRET); assay type: biochemical; settings: human recombinant proteins, 1 hour at room temperature, read-out: IC50, KRAS G12D/SOS/c-Raf complex formation inhibition
Procedure: Using human recombinant KRAS G12D, SOS and c-Raf proteins, the inhibitory activity of subject compounds on the complex formation of the proteins was examined by a time-resolved fluorescence resonance energy transfer (TR-FRET) method.
Biotinylated AviTag-KRAS G12D (amino acid region of 1-185, GDP) (2.5 μL; 400 nM) and subject compounds dissolved in an assay buffer (50 mM HEPES, 150 mM NaCl, 5 mM MgCl2, 0.05% Tween 20, pH 7.0) were added to a 384-well plate (from Corning) in a liquid volume of 2.5 μL at 40,000 nM to 40 nM. Son of Sevenless (SOS) (amino acid region of 564-1049, 2.5 μL; 1.3 μM) and c-Raf (amino acid region of 51-131) GST (2.5 μL; 130 nM) containing GTP (from Sigma-Aldrich; 2 μM) were added to the plate, and the plate was allowed to stand for 1 hour at room temperature. Then, a mixture liquid (10 μL) of LANCE Ulight-anti-GST (from PerkinElmer; 120 nM) and LANCE Eu-W1024 labeled Streptoavidin (from PerkinElmer; 100 ng/mL) was added, and the 620-nm and 665-nm fluorescence intensities were measured using EnVision 2104 (from PerkinElmer) under the conditions of an excitation wavelength of 337 nm. After standardizing the values with the fluorescence intensity at a reference wavelength of 620 nm, the 50% inhibitory concentrations (IC50) were calculated by Sigmoid-Emax model nonlinear regression analysis with the signaling value in treatment with the solvent taken as 0% inhibition and with the signaling value without the addition of GTP taken as 100% inhibition.

[2] = tested on: ERK phosphorylation (Thr202/Tyr204) in KRAS G12D mutant-positive pancreatic cancer line AsPC-1; test: ERK phosphorylation inhibitory activity in AsPC-1 (cell ELISA); assay type: cell-based; settings: Homo sapiens, ASPC1, 2 h, read-out: IC50, ERK phosphorylation inhibition
Procedure: The ERK phosphorylation inhibitory activities of subject compounds were evaluated by measuring phosphorylation of the 202th threonine (Thr202) and the 204th tyrosine (Tyr204) of ERK located downstream of the KRAS signal by cell ELISA.
AsPC-1 cells (ATCC, CRL-1682) were seeded at 36 μL/well on a 384-well plate (from Greiner bio-one) to give 2.0×10^4 cells per well. As for the cell culture conditions, RPMI-1640 medium (from Sigma-Aldrich) containing 10% fetal bovine serum (from GE Life Sciences) was used in the presence of 5% CO2 at 37° C.
The next day, the subject compounds (6 points having final concentrations in the range of 10 μM to 0.3 nM), trametinib (MEK inhibitor) of a final concentration of 1 μM as a positive control and DMSO, which was the solvent for the subject compounds, as a negative control were diluted 100-fold with a fresh medium and were each added at 4 μL per well, followed by culturing for 2 hours. After culturing, a 30% glyoxal solution (40% glyoxal [from Wako] was diluted with Phosphate Buffered Saline [PBS; from Wako) was quickly added at 30 μL per well, and the plate was allowed to stand for an hour at room temperature to thus immobilize the cells. Then, the plate was centrifuged (110× g, seven seconds, hereinafter centrifugation was performed under the same conditions unless otherwise specified) to remove the supernatant, and 0.1% Triton X-100 (from Amersham Biosciences)—containing PBS was added at 20 μL per well. After allowing the plate to stand for 10 minutes at room temperature, the supernatant was removed by centrifugation, and the same operation was further repeated. Next, 0.5% sodium dodecyl sulfate (SDS; from Invitrogen)-containing PBS was added at 20 μL per well. The plate was allowed to stand at room temperature for 30 minutes and was then centrifuged to remove the supernatant. Subsequently, a blocking solution (Intercept Blocking Buffer; from LI-COR Biosciences) was added at 20 μL per well, and the plate was allowed to stand for an hour at room temperature. The supernatant was removed by centrifugation, and an ERK (Thr202/Tyr204) phosphorylation antibody (Phospho-p44/42 MAPK (Erk 1/2) (Thr202/Tyr204) (D13.14.4E) XP Rabbit mAb; from Cell Signaling Technology) diluted 2,500-fold with the blocking solution was added at 10 μL per well as a primary antibody. The plate was allowed to stand at 4° C. overnight.
The next day, the plate was centrifuged to remove the supernatant, and 0.05% Tween-20-containing PBS (from Thermo Scientific; 20× PBS Tween-20 was diluted 20-fold with ion exchange water and used) was added at 20 μL per well. The supernatant was removed by centrifugation to thus wash each well. The washing was performed three times in total. After washing, an IRDye 800CW Goat anti-Rabbit IgG (from LI-COR Biosciences) diluted 1,000-fold with the blocking solution was added at 10 μL per well as a secondary antibody, and the plate was allowed to stand for an hour at room temperature. The plate was centrifuged to remove the supernatant, and each well was washed three times with 0.05% Tween-20-containing PBS in the same manner as after the primary antibody reaction. Centrifugation after the third washing was performed at 171×g for 17 seconds. After removing the supernatant, the plate was dried as it was with air at room temperature for three hours or more, and the 800-nm fluorescent signals were measured with Aerius (from LI-COR Biosciences).
With the signaling value at the time of addition of DMSO taken as 0% inhibition and with the signaling value at the time of addition of […] trametinib taken as 100% inhibition, the 50% inhibition values (IC50) were calculated by Sigmoid-Emax model nonlinear regression analysis.

[3] = tested on: KRAS G12D mutant-positive pancreatic cancer line AsPC-1; test: Non-anchorage-dependent cell growth inhibitory activity in AsPC-1 (spheroid 3D culture); assay type: cell-based; settings: Homo sapiens, ASPC1, 144 h, read-out: IC50, non-anchorage-dependent cell growth inhibition
Procedure: The non-anchorage-dependent cell growth inhibitory activities of subject compounds were evaluated by spheroid 3D cell culture.
AsPC-1 cells were seeded at 36 μL/well on a low-cell-adhesive round bottom 384-well plate (Prime Surface: from Sumitomo Bakelite) to give 5×10^2 cells per well. The cell culture was performed under the same conditions as in the Test Example 2.
The next day, the subject compounds (6 points having final concentrations in the range of 10 μM to 3.0 nM) and DMSO, which was the solvent for the subject compounds, as a negative control were diluted 100-fold with a fresh medium and were each added at 4 μL per well. After culturing in the presence of 5% CO2 at 37° C. for six days, CellTiter Glo 2.0 (from Promega) was added at 20 μL per well. After stirring with a plate mixer (from FINEPCR) at normal temperature for an hour, the luminescent signals were measured with ARVO X3 (from PerkinElmer).
With the signaling value in treatment with DMSO taken as 0% inhibition and with the signaling value in the medium alone without cells taken as 100% inhibition, the 50% inhibition values (IC50) were calculated by Sigmoid-Emax model nonlinear regression analysis.

Sequence of KRAS G12D/SOS/c-Raf complex (P01116 other isoform, or with tags, fused parts or gaps G12D): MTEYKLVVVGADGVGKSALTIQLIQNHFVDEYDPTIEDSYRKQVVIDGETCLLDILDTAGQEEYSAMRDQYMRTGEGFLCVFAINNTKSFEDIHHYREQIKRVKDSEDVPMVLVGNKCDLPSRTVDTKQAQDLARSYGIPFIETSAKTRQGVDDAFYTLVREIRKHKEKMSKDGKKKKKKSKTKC

| SMILES | pIC50 [1] | pIC50 [2] | pIC50 [3] |
| --- | --- | --- | --- |
| Cc1c(F)cc2[nH]ncc2c1-c1c(C2CC2)cc2c(N3C[C@@H]4C[C@H]3CN4)nc(O[C@@H]3CCCc4cnccc43)nc2c1OCc1ccc(Cn2c(=O)n(C)c3ncccc32)cc1 [Example 8, 1-[(4-{[(6-cyclopropyl-4-[(1S,4S)-2,5-diazabicyclo[2.2.1]heptan-2-yl]-7-(6-fluoro-5-methyl-1H-indazol-4-yl)-2-{[(5R)-5,6,7,8-tetrahydroisoquinolin-5-yl]oxy}quinazolin-8-yl)oxy]methyl}phenyl)methyl]-3-methyl-1,3-dihydro-2H-imidazo[4,5-b]pyridin-2-one] | 7.40 | 7.52 | 7.14 |
| Cc1c(F)cc2[nH]ncc2c1-c1c(C2CC2)cc2c(N3C[C@@H]4C[C@H]3CN4)nc(OC3CCOCC3)nc2c1OCc1ccc(Cc2ncn(C3CC3)n2)cc1 [Example 14, 6-cyclopropyl-8-({4-[(1-cyclopropyl-1H-1,2,4-triazol-3-yl)methyl]phenyl}methoxy)-4-[(1 S,4S)-2,5-diazabicyclo[2.2.1]heptan-2-yl]-7-(6-fluoro-5-methyl-1H-indazol-4-yl)-2-[(oxan-4-yl)oxy]quinazoline] | 6.84 | 7.38 | 6.81 |
